From patent US20200383985A1, “Inhibitors of Protease Activated Receptor-2” (Endosome Therapeutics, Inc., priority 2017, published 2020)
Several values for one entry are separate records, joined by “and”; a condition that tells them apart may be missing. Equal values may be shown once. Read-outs that look alike come from different tables or passages of the source.

Tests used:
Assay type in all cases: cell-based
KNRK cells = assay: ATP-stimulated IP1 accumulation in KNRK cells; settings: ATP (10 μM)
Method: KNRK-hPAR2, KNRK or HT-29 cells were seeded at a density of 50×10^3 cells/well in a clear poly-d-lysine coated 96 well tissue culture plate. Following 24 h incubation at 37° C. and 5% CO2, media was removed and replaced with 80 μl IP1 stimulation buffer (10 mM HEPES, 1 mM CaCl2, 0.5 mM MgCl2, 4.2 mM KCl, 146 mM NaCl, 5.5 mM glucose, 50 mM LiCl). Following stimulation buffer addition, the wells received 10 μl of 10× antagonists or DMSO vehicle. All plates were further incubated at 37° C., 5% CO2 for 30 min. 10 μl of 2F or ATP was added to the plates and further incubated for 40 min. Following incubation, stimulation buffer was quickly removed by aspiration and replaced with 25 μl lysis buffer (IP-One HTRF® assay kit, Cisbio). Following incubation of the lysates at 37° C., 5% CO2 for 10′, 10 μl lysate was transferred to a 384-well OptiPlate (PerkinElmer) and detected using the IP-One HTRF® assay kit (Cisbio).
Compounds of the invention (added at 10×concentrations in a 10 μL volume) were incubated for 30 min prior to the addition of 10 μM ATP or 100 nM or 300 nM PAR2 agonist (2F; EC80, added at 10×concentrations in a 10 μL volume) and then further incubated for 40 min. After lysis, the inositol phosphate 1 was quantified with IP-One HTRF® assay kit, Cisbio. The data was analysed with Prism, GraphPad to calculate the IC50 values, shown below in Table 1. […]

human (h) PAR2 = biological target: T1, human (h) PAR2 (Homo sapiens, UniProt P55085); assay: IP1 accumulation assay in KNRK-hPAR2 cells
T1 construct: expressed in transfected cells; host or cells: KNRK cells (KNRK-hPAR2)
T1 sequence (P55085 26-397): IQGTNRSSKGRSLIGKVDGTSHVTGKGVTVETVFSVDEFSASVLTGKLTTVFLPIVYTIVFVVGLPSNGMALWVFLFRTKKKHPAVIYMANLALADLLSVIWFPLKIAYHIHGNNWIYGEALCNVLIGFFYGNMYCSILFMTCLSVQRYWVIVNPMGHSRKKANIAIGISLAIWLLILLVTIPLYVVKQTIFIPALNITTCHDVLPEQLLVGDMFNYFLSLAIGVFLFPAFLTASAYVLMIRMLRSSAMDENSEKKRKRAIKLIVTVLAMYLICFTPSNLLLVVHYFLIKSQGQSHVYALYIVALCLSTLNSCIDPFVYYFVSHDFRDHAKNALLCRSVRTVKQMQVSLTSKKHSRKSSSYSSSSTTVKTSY

PAR2 = biological target: T2, PAR2 (Homo sapiens, UniProt P55085); assay: IP1 accumulation assay in HT-29 cells (endogenous PAR2); settings: 2F (300 nM)-induced IP1, HT-29 cells; read-out: HT-29 300 nM 2F pIC50 ± SEM (converted)
T2 construct: HT-29 cells and HEK293 cells, which express endogenous PAR2; endogenous in cells; host or cells: HT-29
T2 sequence (P55085 26-397): T1 sequence (P55085 26-397)
Outline: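 KNRK-hPAR2 or HT-29 cells (50×10³/well, 24 h) in LiCl-containing stimulation buffer, pre-incubated with antagonist 30 min at 37 °C, then stimulated 40 min with 2F at 100 or 300 nM (EC80) or 10 μM ATP. IP1 in lysate quantified by HTRF; IC50 from concentration-response.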

Cc1nc(C(=O)N2CCN(C(=O)c3cn4nc(-c5ccc(F)cc5)cc(C(C)(C)C)c4n3)C(C)(C)C2)n[nH]1 [Compound I-343, (8-(tert-butyl)-6-(4-fluorophenyl)imidazo[1,2-b]pyridazin-2-yl)(2,2-dimethyl-4-(5-methyl-1H-1,2,4-triazole-3-carbonyl)piperazin-1-yl)methanone]
ATP-stimulated IP1 (KNRK cells): did not affect | IC50 (human (h) PAR2; 2F (100 nM)-induced IP1, KNRK-hPAR2 cells, read-out: KNRK-PAR2 100 nM 2F (IC50)): 666 nM | IC50 (human (h) PAR2; trypsin (30 nM), read-out: IC50, trypsin-induced IP1 in KNRK-hPAR2 cells): 7510 nM | IC50 (human (h) PAR2; trypsin (30 nM), read-out: pIC50, trypsin-induced IP1 in KNRK-hPAR2 cells (converted)): 7410 nM | IC50 (PAR2): 1.17 nM and 1.1 nM
